# Measured values from US20240417437A1, “Linker Polypeptides” (Trutino Biosciences Inc., priority 2021, published 2024).
# Where no end group is shown, it is not given here. The star is where a group is joined. EDANS = O=S(=O)(O)c1cccc2c(NCCN*)cccc12
# Assays:
# Collagen type I = Collagen type I (Homo sapiens, UniProt P02452+P08123); details: binds to Collagen type I; Note 1 of Table 2; cited from earlier work
# [1] = tested on: Heparan sulfate proteoglycans; details: DTx protein derived sequences; cited from earlier work
# [2] = pH-sensitive targeting sequences; cited from earlier work
# fibronectin [3] = biological target: fibronectin (Homo sapiens, UniProt P02751); details: derived from thrombospondin, cited from earlier work; for Note 1: affinity (binds to Fibronectin): pH-sensitive targeting sequences
# [4] = tested on: MC38 colorectal cancer cells; experiment: MC38 colorectal cancer tumor growth inhibition study; assay type: in vivo, C57BL/6 mice; details: low dose (1 mg/kg IP BIW)
# Procedure: C57BL/6 mice were subcutaneously inoculated with MC38 colorectal cancer cells. When the average tumor volume reached 70-90 mm^3, animals were randomized into 10 groups based on tumor volumes (n 7 or 6 mice per treatment group).
# Tumor volumes were measured twice a week for the duration of the study.
# [5] = assay type: binding; details: compared with IL-15Rα-IL-15 fusion protein
# Procedure: 96-well plates were coated with 10 μg/mL of Heparin-BSA conjugate (provided by Dr. Mueller, Boerhinger Ingelheim) or control BSA for 18-22 hours at room temperature on shaker (350 rpm). After washing, wells are blocked with 2% milk powder in PBS-0.05% Tween 20 or PBS-0.05% Tween 20/1% BSA for 90 minutes. The fusion proteins were then titrated in either 2% milk powder in PBS-0.05% Tween 20 or 1% BSA/PBS-0.05% Tween 20, pH 7.5 and/or pH 6, and added for 2 hours at room temperature with shaking. After washing, an anti-mouse IL-2 biotin-labelled detection antibody (JES6-5H4, ThermoFisher), anti-6×-His Tag HRP conjugate antibody (Invitrogen, 1 mg/mL, cat #MA1-21315-HRP), or anti-human IgG HRP conjugate antibody (SouthernBiotech) was added, and binding was detected using Ultra Streptavidin HRP (ThermoFisher). The plate was developed by adding the chromogenic tetramethylbenzidine substrate (Ultra TMB, ThermoFisher). The reaction was stopped by addition of 0.5 M H2SO4, and the absorbance was read at 450-650 nm. […] Moreover, when the same pH-dependent heparin binding motif was inserted into different locations of IL-2 fusion proteins, all resulting proteins bound heparin at pH 6 with similar high affinities (FIGS. 4F and 4G). Likewise, similar binding affinities were observed when another heparin targeting sequence was engineered into different sites of IL-2 fusion proteins (FIGS. 4H-4I). […]
# fibronectin [6] = experiment: EDANS linker peptide binding to fibronectin-coated magnetic beads; details: peptides 20 μM
# Procedure: (§1) A series of peptides comprising an MMP cleavable site with or without the addition of a targeting sequence were synthesized and conjugated to the fluorophore EDANS (5-((2-Aminoethyl)amino)naphthalene-1-sulfonic acid) (custom synthesis, ThermoFisher). […] These peptides were then tested for their ability to bind ECM proteins such as heparin, fibronectin and collagen which are found in abundance in tumor stroma.
# (§2) For fibronectin and collagen binding peptide assays, streptavidin coupled magnetic beads (Mag Sepharose, Cytiva and Dynabeads, ThermoFisher, respectively) were first incubated with biotin-labelled fibronectin (Cytoskeleton) or biotin-labelled collagen IV (Prospec) for 1 hour with gentle shaking. Following multiple washes, the ECM-coated beads were then incubated with Edans Peptides (20 μM) for 2 hours at room temperature with shaking in neutral or acidic binding buffer. Beads were then washed and resuspended in 100 μL of binding buffer in a black 96-well plate. Peptide binding was quantified by measuring the fluorescence of samples using excitation/emission spectra of EDANS (Ex 340/Em 490).
# collagen IV = biological target: T1, collagen IV (Homo sapiens, UniProt P02462+P08572); experiment: EDANS linker peptide binding to collagen IV-coated magnetic beads; details: peptides 20 μM, 2 hours
# T1 construct: purchased Prospec
# Procedure: as §1, §2
# Chain of fibronectin (Homo sapiens, UniProt P02751) (P02751 32-2477, species assumed): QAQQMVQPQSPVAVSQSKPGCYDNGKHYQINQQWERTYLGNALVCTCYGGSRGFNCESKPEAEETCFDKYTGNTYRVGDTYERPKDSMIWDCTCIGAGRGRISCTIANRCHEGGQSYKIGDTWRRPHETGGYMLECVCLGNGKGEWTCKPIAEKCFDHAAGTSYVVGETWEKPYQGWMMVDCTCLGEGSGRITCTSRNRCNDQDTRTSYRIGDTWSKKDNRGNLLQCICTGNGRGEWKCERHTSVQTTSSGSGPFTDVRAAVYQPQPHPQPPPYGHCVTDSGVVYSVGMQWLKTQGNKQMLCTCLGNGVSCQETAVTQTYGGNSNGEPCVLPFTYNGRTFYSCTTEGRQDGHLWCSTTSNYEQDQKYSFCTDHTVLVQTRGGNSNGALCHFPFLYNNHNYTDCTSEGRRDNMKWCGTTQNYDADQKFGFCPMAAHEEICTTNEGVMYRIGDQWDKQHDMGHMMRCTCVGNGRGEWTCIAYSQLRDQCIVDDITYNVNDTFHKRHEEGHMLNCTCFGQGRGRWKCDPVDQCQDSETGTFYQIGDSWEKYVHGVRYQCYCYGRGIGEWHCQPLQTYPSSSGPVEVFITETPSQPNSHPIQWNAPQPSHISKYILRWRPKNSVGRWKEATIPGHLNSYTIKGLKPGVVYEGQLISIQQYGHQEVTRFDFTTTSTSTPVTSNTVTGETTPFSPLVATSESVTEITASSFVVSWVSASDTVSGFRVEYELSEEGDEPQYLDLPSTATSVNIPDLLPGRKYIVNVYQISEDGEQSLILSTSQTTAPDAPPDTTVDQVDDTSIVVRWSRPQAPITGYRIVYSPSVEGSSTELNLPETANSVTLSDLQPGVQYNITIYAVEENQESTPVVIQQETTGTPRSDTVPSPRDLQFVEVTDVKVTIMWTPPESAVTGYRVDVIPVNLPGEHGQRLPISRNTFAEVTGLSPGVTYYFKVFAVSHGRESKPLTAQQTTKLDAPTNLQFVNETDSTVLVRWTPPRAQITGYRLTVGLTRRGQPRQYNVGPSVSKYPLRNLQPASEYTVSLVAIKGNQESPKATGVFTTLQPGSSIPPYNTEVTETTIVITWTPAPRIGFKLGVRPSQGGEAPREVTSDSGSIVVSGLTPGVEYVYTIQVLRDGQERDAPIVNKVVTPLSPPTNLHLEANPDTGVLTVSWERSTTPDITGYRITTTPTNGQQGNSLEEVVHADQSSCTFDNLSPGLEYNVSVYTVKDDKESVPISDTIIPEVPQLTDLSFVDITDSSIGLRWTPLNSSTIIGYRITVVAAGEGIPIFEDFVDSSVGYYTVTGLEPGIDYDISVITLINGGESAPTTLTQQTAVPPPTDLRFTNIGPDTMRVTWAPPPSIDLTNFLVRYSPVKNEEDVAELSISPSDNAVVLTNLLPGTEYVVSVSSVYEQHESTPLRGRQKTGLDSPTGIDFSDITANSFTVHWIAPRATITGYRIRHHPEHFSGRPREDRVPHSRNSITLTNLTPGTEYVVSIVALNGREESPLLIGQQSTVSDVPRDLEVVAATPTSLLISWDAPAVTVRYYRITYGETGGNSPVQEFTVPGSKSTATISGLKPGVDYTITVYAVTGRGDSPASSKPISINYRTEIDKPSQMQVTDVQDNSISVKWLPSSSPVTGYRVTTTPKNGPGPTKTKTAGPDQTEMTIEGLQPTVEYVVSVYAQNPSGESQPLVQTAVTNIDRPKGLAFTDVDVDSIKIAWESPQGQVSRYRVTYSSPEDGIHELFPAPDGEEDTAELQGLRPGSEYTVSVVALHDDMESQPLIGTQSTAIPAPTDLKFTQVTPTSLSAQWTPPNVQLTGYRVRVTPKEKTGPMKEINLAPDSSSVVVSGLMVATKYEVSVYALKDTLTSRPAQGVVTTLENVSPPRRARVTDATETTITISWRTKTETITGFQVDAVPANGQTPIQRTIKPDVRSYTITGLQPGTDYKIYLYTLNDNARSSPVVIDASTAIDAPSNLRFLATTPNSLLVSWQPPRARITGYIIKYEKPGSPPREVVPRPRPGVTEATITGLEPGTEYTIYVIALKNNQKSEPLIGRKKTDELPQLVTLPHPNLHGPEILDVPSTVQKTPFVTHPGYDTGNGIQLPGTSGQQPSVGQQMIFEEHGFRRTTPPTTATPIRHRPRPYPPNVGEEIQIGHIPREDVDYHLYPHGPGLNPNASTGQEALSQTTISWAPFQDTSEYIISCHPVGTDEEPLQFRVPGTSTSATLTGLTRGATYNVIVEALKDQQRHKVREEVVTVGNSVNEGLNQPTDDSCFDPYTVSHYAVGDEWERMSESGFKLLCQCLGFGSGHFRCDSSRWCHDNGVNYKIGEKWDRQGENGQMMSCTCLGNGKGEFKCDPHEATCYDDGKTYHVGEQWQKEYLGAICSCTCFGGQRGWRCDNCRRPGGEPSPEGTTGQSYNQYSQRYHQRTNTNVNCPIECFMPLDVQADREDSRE
# Chain of Collagen type I (P02452 162-1218 limits assumed): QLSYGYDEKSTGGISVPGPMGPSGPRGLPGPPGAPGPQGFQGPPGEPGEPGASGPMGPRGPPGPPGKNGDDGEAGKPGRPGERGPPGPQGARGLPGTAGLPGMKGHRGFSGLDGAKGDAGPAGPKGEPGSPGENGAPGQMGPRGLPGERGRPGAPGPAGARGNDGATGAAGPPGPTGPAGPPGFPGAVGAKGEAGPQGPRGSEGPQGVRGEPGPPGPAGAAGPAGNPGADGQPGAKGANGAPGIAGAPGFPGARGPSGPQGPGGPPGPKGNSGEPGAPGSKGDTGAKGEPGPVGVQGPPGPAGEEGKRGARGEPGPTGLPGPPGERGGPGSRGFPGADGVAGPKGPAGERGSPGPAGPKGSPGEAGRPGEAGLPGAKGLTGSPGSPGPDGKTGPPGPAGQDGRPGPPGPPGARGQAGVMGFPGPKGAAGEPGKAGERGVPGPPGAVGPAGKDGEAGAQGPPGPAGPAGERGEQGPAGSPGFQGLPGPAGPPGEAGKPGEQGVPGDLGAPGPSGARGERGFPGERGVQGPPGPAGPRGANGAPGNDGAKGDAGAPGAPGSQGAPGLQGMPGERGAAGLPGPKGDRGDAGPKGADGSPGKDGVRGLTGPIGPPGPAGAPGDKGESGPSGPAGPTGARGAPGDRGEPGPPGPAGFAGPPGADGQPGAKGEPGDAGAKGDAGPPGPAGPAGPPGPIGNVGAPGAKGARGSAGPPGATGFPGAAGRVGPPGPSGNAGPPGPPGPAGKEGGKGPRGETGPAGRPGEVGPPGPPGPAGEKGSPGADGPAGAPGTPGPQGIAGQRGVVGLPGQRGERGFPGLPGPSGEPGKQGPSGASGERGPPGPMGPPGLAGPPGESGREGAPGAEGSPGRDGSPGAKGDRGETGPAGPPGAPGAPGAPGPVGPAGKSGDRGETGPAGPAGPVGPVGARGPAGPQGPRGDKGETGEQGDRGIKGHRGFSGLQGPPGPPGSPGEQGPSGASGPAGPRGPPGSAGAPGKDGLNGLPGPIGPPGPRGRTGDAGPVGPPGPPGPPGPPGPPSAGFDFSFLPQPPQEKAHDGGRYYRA
# Chain of Collagen type I (P08123 80-1119 limits assumed): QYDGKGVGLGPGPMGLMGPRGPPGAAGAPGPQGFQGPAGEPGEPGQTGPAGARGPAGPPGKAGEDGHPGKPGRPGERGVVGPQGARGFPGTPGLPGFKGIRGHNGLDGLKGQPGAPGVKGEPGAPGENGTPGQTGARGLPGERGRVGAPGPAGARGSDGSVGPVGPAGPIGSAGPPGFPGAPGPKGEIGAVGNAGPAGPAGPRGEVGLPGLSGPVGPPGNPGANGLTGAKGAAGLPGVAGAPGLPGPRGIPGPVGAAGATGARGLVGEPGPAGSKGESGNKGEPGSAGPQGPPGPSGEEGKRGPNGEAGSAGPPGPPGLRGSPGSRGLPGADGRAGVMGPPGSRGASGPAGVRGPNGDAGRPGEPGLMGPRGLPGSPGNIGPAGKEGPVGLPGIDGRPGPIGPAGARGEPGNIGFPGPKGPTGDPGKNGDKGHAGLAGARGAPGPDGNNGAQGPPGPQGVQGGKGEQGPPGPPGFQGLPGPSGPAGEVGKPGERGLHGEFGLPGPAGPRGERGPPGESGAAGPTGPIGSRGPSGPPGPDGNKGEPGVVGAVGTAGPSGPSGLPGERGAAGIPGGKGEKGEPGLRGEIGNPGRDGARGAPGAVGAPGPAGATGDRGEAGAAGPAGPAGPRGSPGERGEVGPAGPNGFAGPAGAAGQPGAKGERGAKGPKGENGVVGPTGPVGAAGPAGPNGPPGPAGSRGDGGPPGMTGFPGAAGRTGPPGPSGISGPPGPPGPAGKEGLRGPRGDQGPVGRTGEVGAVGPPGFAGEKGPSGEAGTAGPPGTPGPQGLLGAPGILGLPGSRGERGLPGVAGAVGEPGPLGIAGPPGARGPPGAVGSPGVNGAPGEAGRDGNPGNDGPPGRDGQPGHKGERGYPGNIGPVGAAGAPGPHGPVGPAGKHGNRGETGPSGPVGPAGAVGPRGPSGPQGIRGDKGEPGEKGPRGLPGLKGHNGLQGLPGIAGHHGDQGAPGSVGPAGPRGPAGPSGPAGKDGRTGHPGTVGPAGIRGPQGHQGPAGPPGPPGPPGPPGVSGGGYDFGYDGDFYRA
substance,measurement,setting,value
189 (RRANAALKAGELYKSILYGC; Synthetic: Collagen type I) [Construct 189],Kd,Collagen type I,860 nM
190 (RRANAALKAGELYKCILYGC; Synthetic: Collagen type I) [Construct 190],Kd,Collagen type I,10 nM
191 (MIVIELGTNPLKSSGIENGAFQGMKK; Synthetic: Collagen type I) [Construct 191],Kd,Collagen type I,394 nM
192 (LRELHLNNN; Synthetic: Collagen type I) [Construct 192],Kd,Collagen type I,170 nM
194 (TKKTLRT; Synthetic: Collagen type I) [Construct 194],Kd,Collagen type I,≤ 100000 nM
195 (CPKESCNLFVLKD; Synthetic: Collagen type I) [Construct 195],Kd,Collagen type I,681 nM
"197 (HVWMQAPGGGK; Synthetic: Collagen type I, H-v-F/W-Q/ M-Q-P/A-P/K motif) [Construct 197]",Kd,Collagen type I,61000 nM
639 (NGRKIRMRCRAIDGD; Synthetic: Heparan sulfate proteoglycans ; binds to HSGP with high affinity (DTx protein)) [Construct 639],"Note 1: binds to HSGP, affinity",[1],binds to HSGP with high affinity (DTx protein)
640 (DVIRDKTKTKIESLK; Synthetic: Heparan sulfate proteoglycans ; binds to HSGP with low affinity (DTx protein)) [Construct 640],"Note 1: binds to HSGP, affinity",[1],binds to HSGP with low affinity (DTx protein)
642 (KHAHLKKQVSDHIAVY; Synthetic: Heparin; binds to heparin at low pH (high affinity)) [Construct 642],Note 1: binds to heparin at low pH (affinity),[2],binds to heparin at low pH (high affinity)
643 (TTEPSEEHNHHK; Synthetic: Heparin; binds to heparin at low pH (low affinity)) [Construct 643],Note 1: binds to heparin at low pH (affinity),[2],binds to heparin at low pH (low affinity)
644 (KHAHL; Synthetic: Heparin; binds to heparin at low pH (lower affinity)) [Construct 644],Note 1: binds to heparin at low pH (affinity),[2],binds to heparin at low pH (lower affinity)
645 (TTEPSEEHNHHK; Synthetic: Heparin; binds to heparin at low pH (lower affinity)) [Construct 645],Note 1: binds to heparin at low pH (affinity),[2],binds to heparin at low pH (lower affinity)
646 (TTEPSEEHNHHKHHDK; Synthetic: Heparin; binds to heparin at low pH (lower affinity)) [Construct 646],Note 1: binds to heparin at low pH (affinity),[2],binds to heparin at low pH (lower affinity)
647 (HKGQHR; Synthetic: Heparin; binds to heparin at low pH (lower affinity)) [Construct 647],Note 1: binds to heparin at low pH (affinity),[2],binds to heparin at low pH (lower affinity)
648 (KVEHRVKKRPPTWRHNVRAKYT; Synthetic: Heparin; binds to heparin at low pH) [Construct 648],Note 1: binds to heparin at low pH (affinity),[2],binds to heparin at low pH
649 (GGKVEHRVKKRPPTWRHNVRAKYT; Synthetic: Heparin; binds to heparin at low pH) [Construct 649],Note 1: binds to heparin at low pH (affinity),[2],binds to heparin at low pH
650 (KKRPPTWRHNV; Synthetic: Heparin; binds to heparin at low pH) [Construct 650],Note 1: binds to heparin at low pH (affinity),[2],binds to heparin at low pH
653 (GGWSHW; Synthetic: Fibronectin; derived from thrombospondin (highest affinity)) [Construct 653],Note 2: pH dependence of binding to Fibronectin,fibronectin [3],binds better at lower pH
same,Note 1: affinity (binds to Fibronectin),fibronectin [3],(highest affinity)
655 (KRFKQDGGWSHWSP; Synthetic: Fibronectin; derived from thrombospondin (medium affinity)) [Construct 655],Note 1: affinity (binds to Fibronectin),fibronectin [3],derived from thrombospondin (medium affinity)
656 (GGWSHWSPWSS; Synthetic: Fibronectin; derived from thrombospondin (medium affinity)) [Construct 656],Note 1: affinity (binds to Fibronectin),fibronectin [3],derived from thrombospondin (medium affinity)
Construct NNN: huIL2(C125S)-SGGKLWVLPK-MMPcs1-2x(G4S)-huIL2Ra(1-219;M25I)-GSGGGG-huIgG1(LALA); col IV,efficacy (TGI) in low dose treatment groups,[4],superior efficacy over parental non-targeting constructs
Construct VVV: huIL15Ra(1-77)-linker-huIL15-(SG3)-GPLGVRG-4x(G4S)-IL2Rb(1-214)-6xHis; no TME,heparin binding of IL-15 linker polypeptide fusion proteins,[5],lost
Construct WWW: huIL15Ra(1-77)-linker-huIL15-(SG3)-GPLGVRG-gsVRIQRKKEKMKET-3x(G4S)-IL2Rb(1-214)-6xHis,heparin binding of IL-15 linker polypeptide fusion proteins,[5],recovered
peptide 13: EDANS-conjugated GGGWSHWGPLGVRG-* (SEQ ID NO: 671); pH dependent fibronectin (GGGWSHWGPLGVRG-{EDANS}),peptide binding to fibronectin at pH 6 vs. pH 7.5,fibronectin [6],enhanced binding at pH 6
same,peptide binding to fibronectin (EDANS fluorescence),fibronectin [6]; 2 hours,able to bind fibronectin
peptide 14: EDANS-conjugated KLWVLPKGPLGVRG-* (SEQ ID NO: 672); Collagen IV (KLWVLPKGPLGVRG-{EDANS}),peptide binding to collagen IV (EDANS fluorescence),collagen IV,strongly bound
peptide 15: EDANS-conjugated GGGSGLHERHLNNN-* (SEQ ID NO: 673); Collagen I (GGGSGLHERHLNNN-{EDANS}),peptide binding to collagen IV (EDANS fluorescence),collagen IV,bound to a lesser extent
